Drawing on patent US11040028B2, “Penicinotam derivative, preparation method and use thereof” (OCEAN UNIVERSITY OF CHINA, priority 2017, dated 2021), this text covers IC50 for eight compounds.

What all share (type): cell-based
In experiment [1] the test system is cardiac fibroblast RAT-iCell-C002. In words: Anti-fibrosis activity test: inhibition of proliferation of cardiac fibroblast RAT-iCell-C002 (CCK-8). The conditions noted are these: Cardiac fibroblast, 48 h, RAT-iCell-C002 cells, CCK-8. A digest of the protocol:
(§1)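 Cells were seeded at 2×10^4 cells/mL and allowed to adhere for 24 h at 37° C, 5% CO2, then exposed to graded compound concentrations in triplicate for 48 h. CCK-8 was added for 2 h, A450 was read, and IC50 was derived from inhibition rate = (1−Ai/Ao)×100%.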

Experiment [2] deals with human hepatic stellate cells LX-2. As to the kind of experiment: Anti-fibrosis activity test: inhibition of proliferation of human hepatic stellate cells LX-2 (CCK-8). The settings on record: Homo sapiens, LX-2, 48 h, LX-2 cells, 48 h, CCK-8. The essentials:
as §1

The subject of experiment [3] is human dermal fibroblasts CCC-ESF-1. As to the kind of experiment: Anti-fibrosis activity test: inhibition of proliferation of human dermal fibroblasts CCC-ESF-1 (CCK-8). The settings on record: Homo sapiens, Fibroblast; CCC-ESF-1 cells, 48 h, CCK-8. A digest of the protocol: as §1
Another experiment concerns NF-κB. As to the kind of experiment: Immunological activity test: inhibition of NF-κB activity. The settings on record: initial concentration of 30 μM; a/b isomers given as first/second symbol; read-out: IC50 (μM), inhibitory activity against NF-κB. The essentials:
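Compounds were first screened for inhibition of NF-κB activity at 30 μM, with parthenolide as the positive control. IC50 values were then determined for the compounds by further analysis of the assay data.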

The test system of experiment [4] is human fibrosarcoma cells HT-1080. In words: Anti-fibrosis activity test: inhibition of proliferation of human fibrosarcoma cells HT-1080 (CCK-8). The settings on record: Homo sapiens, HT-1080, 48 h, HT-1080 cells, 48 h, CCK-8. A digest of the protocol: as §1
The next experiment deals with BHK-21 cells. As to the kind of experiment: Anti-fibrosis activity test: inhibition of BHK-21 cell proliferation (CCK-8). The conditions noted are these: Mesocricetus auratus, BHK-21, 48 h, 48 h, CCK-8. The essentials: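 Proliferation of BHK-21 cells is measured by CCK-8 at 450 nm following 48 h compound exposure at several concentrations. Inhibition is expressed relative to blank control and IC50 is computed from it.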

Experiment [5] deals with human embryonic lung fibroblast IMR-90. In words: Anti-fibrosis activity test: inhibition of proliferation of human embryonic lung fibroblast IMR-90 (CCK-8). The conditions noted are these: Homo sapiens; IMR-90 cells, 48 h, CCK-8. A digest of the protocol:
as §1

The test system of experiment [6] is human lung fibroblasts HFL1. As to the kind of experiment: Anti-fibrosis activity test: inhibition of proliferation of human lung fibroblasts HFL1 (CCK-8). The settings on record: Homo sapiens, HFL1, 48 h, HFL1 cells, 48 h, CCK-8. The essentials: as §1
For experiment [7], the system named is mouse macrophages (RAW264.7). As to the kind of experiment: Lipopolysaccharide-induced NO secretion in macrophages (Griess). The conditions noted are these: Mus musculus, RAW264.7, 24 h, RAW264.7, LPS 1 μg/ml, a/b isomers given as first/second symbol, read-out: IC50 (μM), inhibition of lipopolysaccharide-induced NO secretion in macrophages. A digest of the protocol: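 RAW264.7 cells in DMEM with 10% FBS were treated with test compounds at several concentrations, then stimulated with LPS (1 μg/ml) for 24 hours. Nitrite in the supernatant was measured by Griess reaction at 548 nm, and percent inhibition was calculated against blank-medium controls.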

A word on the IC50: it is the point on the concentration scale where inhibition reaches its midpoint. For the compound `Cc1ccc2[nH]c3c(c(=O)c2c1)C(=O)n1cccc1-3` [Compound 696a, 7-Methyl-9H-pyrrolizino[1,2-b]quinoline-9,10(4H)-dione], the half-inhibitory concentration (IC50) in [1] was 0.05 to 5 mM; in experiment [2], 0.05 to 5 mM; in experiment [3], 0.05 to 5 mM; with NF-κB, 1 to 10 µM; in experiment [4] it was 0.05 to 5 mM; in the experiment with BHK-21 cells, 0.05 to 5 mM. Besides, the IC50 in [5] was in the range of 0.05 to 5 mM; in experiment [6], 0.05 to 5 mM; in experiment [7], 1 to 10 µM.

Consider `Cc1ccc2nc3c(c(O)c2c1)C(=O)n1cccc1-3` [Compound 696b, 9-hydroxy-7-methyl-10H-pyrrolizino[1,2-b]quinolin-10-one], for which the IC50 lay in the range of 0.05 to 5 mM in [1]; 0.05 to 5 mM in experiment [2]; 0.05 to 5 mM in experiment [3]; 1 to 10 µM with NF-κB; 0.05 to 5 mM in [4]; 0.05 to 5 mM in the experiment on BHK-21 cells. For the same compound, the 50% inhibitory concentration (IC50) in [5] fell in the range of 0.05 to 5 mM; in experiment [6] it was 0.05 to 5 mM; in experiment [7], 1 to 10 µM.

On to `Cc1cccc2c(=O)c3c([nH]c12)-c1cccn1C3=O` [Compound 732a, 5-Methyl-9H-pyrrolizino[1,2-b]quinoline-9,10(4H)-dione], for which the concentration for half-maximal inhibition (IC50) was 0.05 to 5 mM in experiment [1]; 0.05 to 5 mM in experiment [2]; under 0.05 mM in experiment [3]; 0.1 to 1 µM with NF-κB; 0.05 to 5 mM in experiment [4]; under 0.05 mM in the experiment with BHK-21 cells. For the same compound, the concentration for half-maximal inhibition (IC50) lay within 0.05 to 5 mM in experiment [5], 0.05 to 5 mM in [6] and 1 to 10 µM in experiment [7].

As to `Cc1cccc2c(O)c3c(nc12)-c1cccn1C3=O` [Compound 732b, 9-hydroxy-5-methyl-10H-pyrrolizino[1,2-b]quinolin-10-one], the IC50 is 0.05 to 5 mM in experiment [1]; 0.05 to 5 mM in [2]; 0.05 to 5 mM in [3]; 1 to 10 µM in the experiment on NF-κB; 0.05 to 5 mM in experiment [4]; 0.05 to 5 mM with BHK-21 cells. Also, the values for the half-maximal inhibitory concentration (IC50) in experiment [5], in experiment [6] and in experiment [7] were 0.05 to 5 mM, 0.05 to 5 mM and 1 to 10 µM, respectively.

`Cc1cc(C)c2[nH]c3c(c(=O)c2c1)C(=O)n1cccc1-3` [Compound 750a, 5,7-Dimethyl-9H-pyrrolizino[1,2-b]quinoline-9,10(4H)-dione]: the IC50 in experiment [1] fell in the range of 0.05 to 5 mM; in [2], 0.05 to 5 mM; in experiment [3] it was 0.05 to 5 mM; in the experiment on NF-κB, 1 to 10 µM; in [4], 0.05 to 5 mM; in the experiment with BHK-21 cells, 0.05 to 5 mM. In addition, the IC50 lay within 0.05 to 5 mM in experiment [5], 0.05 to 5 mM in experiment [6] and 1 to 10 µM in experiment [7].

With `Cc1cc(C)c2nc3c(c(O)c2c1)C(=O)n1cccc1-3` [Compound 750b, 9-hydroxy-5,7-dimethyl-10H-pyrrolizino[1,2-b]quinolin-10-one], the IC50 in [1] was 0.05 to 5 mM; in experiment [2], 0.05 to 5 mM; in experiment [3], 0.05 to 5 mM; with NF-κB, 1 to 10 µM; in experiment [4], 0.05 to 5 mM; in the experiment with BHK-21 cells, 0.05 to 5 mM. Moreover, the IC50 lay in the range of 0.05 to 5 mM in experiment [5], 0.05 to 5 mM in experiment [6] and 1 to 10 µM in experiment [7].

On to `Cc1cc2[nH]c3c(c(=O)c2cc1C)C(=O)n1cccc1-3` [Compound 756a, 6,7-Dimethyl-9H-pyrrolizino[1,2-b]quinoline-9,10(4H)-dione], for which the IC50 in [1] lay in the range of 0.05 to 5 mM; in experiment [2], 0.05 to 5 mM; in experiment [3], 0.05 to 5 mM; in the experiment on NF-κB it was 1 to 10 µM; in experiment [4] it was 0.05 to 5 mM; with BHK-21 cells, 0.05 to 5 mM. Besides, the results for the half-maximal inhibitory concentration (IC50) in [5], in [6] and in experiment [7] were 0.05 to 5 mM, 0.05 to 5 mM and 0.1 to 1 µM, respectively.

As for `Cc1cc2nc3c(c(O)c2cc1C)C(=O)n1cccc1-3` [Compound 756b, 9-hydroxy-6,7-dimethyl-10H-pyrrolizino[1,2-b]quinolin-10-one], the IC50 in experiment [1] fell in the range of 0.05 to 5 mM; in experiment [2] it was 0.05 to 5 mM; in experiment [3] it was 0.05 to 5 mM; in the experiment with NF-κB it was 1 to 10 µM; in [4], 0.05 to 5 mM; in the experiment with BHK-21 cells, 0.05 to 5 mM. The concentration for half-maximal inhibition (IC50) was in the range of 0.05 to 5 mM in experiment [5], 0.05 to 5 mM in [6] and 10 to 50 µM in experiment [7].
